Assay results as given in ChEMBL document CHEMBL4837206, “Synthesis and biological evaluation of novel isoxazole-piperazine hybrids as potential anti-cancer agents with inhibitory effect on liver cancer stem cells” (Eur J Med Chem, 2021).
pIC50: −log10 of the molar value. Active and inactive are the calls of the source. The rule behind the calls is not given here.

Columns and labels:
[1] = target: Cellular tumor antigen p53 (Homo sapiens) (UniProt P04637); assay: Activation of p53 in human HepG2 cells at 5 uM measured after 72 hrs by Western blot analysis; format: cell-based
Mahlavu [2] = assay: Induction of apoptosis in human Mahlavu cells assessed as nuclear fragmentation measured after 48 hrs by Hoechst33258 staining based inverted fluorescent microscopic method; format: functional, cell-based
SNU-475 [3] = assay: Induction of apoptosis in human SNU-475 cells assessed as nuclear fragmentation measured after 48 hrs by Hoechst33258 staining based inverted fluorescent microscopic method; format: functional, cell-based
SNU-475 [4] = assay: Induction of apoptosis in human SNU-475 cells assessed as chromatin condensation measured after 48 hrs by Hoechst33258 staining based inverted fluorescent microscopic method; format: functional, cell-based
[5] = target: T1, Serine/threonine-protein kinase AKT (Homo sapiens) (UniProt P31751+Q9Y243+P31749); assay: Inhibition of Akt phosphorylation at Ser473 residue in human Mahlavu cells at 5 uM measured after 72 hrs by Western blot analysis; format: cell-based
Huh-7 [6] = assay: Activation of p53 harboring C220T mutant in human Huh-7 cells at 5 uM measured after 72 hrs by Western blot analysis; format: cell-based
Mahlavu [7] = assay: Cell cycle arrest in human Mahlavu cells assessed as increase in accumulation of cells at subG1 phase at 5 uM measured after 48 hrs by propidium iodide staining based flow cytometric analysis; format: functional
Huh-7 [8] = assay: Inhibition of cell stemness in human Huh-7 cells assessed as reduction in size of tumor spheres at 10 uM incubated for 72 hrs followed by incubation in sphere formation medium for 7 days by microscopic analysis; format: functional, cell-based; details: time 10.0 day
HepG2 [9] = assay: Induction of apoptosis in human HepG2 cells at 5 uM measured after 72 hrs by Annexin V-FITC/propidium iodide staining based flow cytometric analysis; format: functional, cell-based
Huh-7 [10] = assay: Antiproliferative activity against human Huh-7 cells assessed as reduction in cell viability measured after 40 to 150 hrs by RT-CES analysis; format: functional, cell-based; details: time 40-150 hrs
Huh-7 [11] = assay: Antiproliferative activity against human Huh-7 cells assessed as reduction in cell viability measured for 180 hrs by RT-CES analysis; format: functional, cell-based; details: dose 2.5-10 µM
[12] = target: T1, Serine/threonine-protein kinase AKT (Homo sapiens); assay: Inhibition of Akt phosphorylation at Ser473 residue in human Huh-7 cells at 5 uM measured after 72 hrs by Western blot analysis; format: cell-based
Mahlavu [13] = assay: Inhibition of cell stemness in human Mahlavu cells assessed as decrease in OCT4 level at 10 uM measured after 72 hrs by flow cytometry analysis; format: functional, cell-based
SNU-475 [14] = assay: Cell cycle arrest in human SNU-475 cells assessed as increase in accumulation of cells at S phase at 5 uM measured after 48 hrs by propidium iodide staining based flow cytometric analysis; format: functional
SNU-475 [15] = assay: Antiproliferative activity against human SNU-475 cells assessed as reduction in cell viability measured for 180 hrs by RT-CES analysis; format: functional, cell-based; details: dose 2.5-10 µM
HepG2 [16] = assay: Induction of apoptosis in human HepG2 cells assessed as chromatin condensation measured after 48 hrs by Hoechst33258 staining based inverted fluorescent microscopic method; format: functional, cell-based
SNU-475 [17] = assay: Induction of apoptosis in human SNU-475 cells at 5 uM measured after 72 hrs by Annexin V-FITC/propidium iodide staining based flow cytometric analysis; format: functional, cell-based
Mahlavu [18] = assay: Activation of p53 harboring G249T mutant in human Mahlavu cells assessed as upregulation of p53 phosphorylation at Ser15 residue at 5 uM incubated for 72 hrs by western blot analysis; format: cell-based; details: filed as activator
Mahlavu [19] = assay: Induction of apoptosis in human Mahlavu cells assessed as apoptotic body formation measured after 48 hrs by Hoechst33258 staining based inverted fluorescent microscopic method; format: functional, cell-based
Mahlavu [20] = assay: Activation of p53 harboring G249T mutant in human Mahlavu cells assessed as upregulation of p21 protein expression at 5 uM incubated for 72 hrs by western blot analysis; format: cell-based
[21] = target: Mitogen-activated protein kinase; ERK1/ERK2 (Homo sapiens) (UniProt P27361+P28482); assay: Downregulation of ERK1/2 phosphorylation at T202/Y204 residue in human SNU-475 cells at 5 uM measured after 72 hrs by Western blot analysis; format: cell-based
Huh-7 [22] = assay: Antiproliferative activity against human Huh-7 cells assessed as reduction in cell viability measured after 72 hrs by SRB assay; format: functional, cell-based; details: Huh-7, 72 h
[23] = target: T1, Serine/threonine-protein kinase AKT (Homo sapiens); assay: Inhibition of Akt phosphorylation at Ser473 residue in human SNU-475 cells at 5 uM measured after 72 hrs by Western blot analysis; format: cell-based
SNU-475 [24] = assay: Activation of p53 harboring A239G/T275C/A288G mutant in human SNU-475 cells assessed as upregulation of p53 acetylation at Lys382 residue at 5 uM incubated for 72 hrs by western blot analysis; format: cell-based; details: filed as activator
Mahlavu [25] = assay: Inhibition of cell stemness in human Mahlavu cells assessed as decrease in NANOG mRNA level at 10 uM measured after 72 hrs by RT-qPCR analysis; format: functional, cell-based

T1 sequence (P31749 whole entry, looked up): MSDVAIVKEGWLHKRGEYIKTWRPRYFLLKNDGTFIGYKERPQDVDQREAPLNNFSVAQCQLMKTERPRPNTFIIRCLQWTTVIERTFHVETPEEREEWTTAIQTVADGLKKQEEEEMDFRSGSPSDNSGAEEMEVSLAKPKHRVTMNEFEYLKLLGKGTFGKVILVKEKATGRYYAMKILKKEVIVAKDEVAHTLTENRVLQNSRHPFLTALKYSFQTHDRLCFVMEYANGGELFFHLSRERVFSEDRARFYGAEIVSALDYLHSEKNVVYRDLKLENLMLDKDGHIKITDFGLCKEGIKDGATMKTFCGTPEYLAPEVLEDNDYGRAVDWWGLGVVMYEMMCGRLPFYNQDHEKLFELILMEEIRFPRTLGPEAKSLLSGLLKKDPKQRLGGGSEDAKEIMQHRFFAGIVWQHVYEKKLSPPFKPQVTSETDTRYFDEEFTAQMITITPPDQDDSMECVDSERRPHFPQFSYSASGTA
T1 sequence (P31751 whole entry, looked up): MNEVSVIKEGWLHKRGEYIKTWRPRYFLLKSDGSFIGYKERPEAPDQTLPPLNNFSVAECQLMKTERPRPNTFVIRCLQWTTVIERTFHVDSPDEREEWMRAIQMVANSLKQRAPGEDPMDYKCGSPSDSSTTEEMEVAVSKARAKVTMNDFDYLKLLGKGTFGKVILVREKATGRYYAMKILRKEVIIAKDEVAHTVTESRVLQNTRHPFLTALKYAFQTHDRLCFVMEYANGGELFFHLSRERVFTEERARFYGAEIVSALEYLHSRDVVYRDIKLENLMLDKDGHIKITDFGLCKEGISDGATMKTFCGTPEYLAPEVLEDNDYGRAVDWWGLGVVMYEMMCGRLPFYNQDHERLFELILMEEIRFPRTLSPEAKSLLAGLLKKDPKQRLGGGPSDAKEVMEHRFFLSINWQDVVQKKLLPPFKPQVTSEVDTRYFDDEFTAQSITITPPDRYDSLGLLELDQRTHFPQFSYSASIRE
T1 sequence (Q9Y243 whole entry, looked up): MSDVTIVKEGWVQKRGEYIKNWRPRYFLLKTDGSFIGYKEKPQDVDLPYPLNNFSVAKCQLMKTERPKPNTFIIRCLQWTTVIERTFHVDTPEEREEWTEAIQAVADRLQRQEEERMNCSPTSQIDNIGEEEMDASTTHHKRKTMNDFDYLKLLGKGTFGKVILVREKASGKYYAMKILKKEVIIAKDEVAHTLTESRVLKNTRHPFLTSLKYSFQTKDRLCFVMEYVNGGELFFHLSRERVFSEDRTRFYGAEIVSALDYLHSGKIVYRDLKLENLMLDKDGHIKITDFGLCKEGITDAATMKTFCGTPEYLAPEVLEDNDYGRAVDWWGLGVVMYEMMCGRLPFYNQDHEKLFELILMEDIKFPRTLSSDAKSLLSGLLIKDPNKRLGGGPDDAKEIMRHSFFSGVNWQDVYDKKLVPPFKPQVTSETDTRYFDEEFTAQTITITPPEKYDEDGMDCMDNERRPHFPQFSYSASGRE
Mitogen-activated protein kinase; ERK1/ERK2 (Homo sapiens), sequence (P27361 whole entry, looked up): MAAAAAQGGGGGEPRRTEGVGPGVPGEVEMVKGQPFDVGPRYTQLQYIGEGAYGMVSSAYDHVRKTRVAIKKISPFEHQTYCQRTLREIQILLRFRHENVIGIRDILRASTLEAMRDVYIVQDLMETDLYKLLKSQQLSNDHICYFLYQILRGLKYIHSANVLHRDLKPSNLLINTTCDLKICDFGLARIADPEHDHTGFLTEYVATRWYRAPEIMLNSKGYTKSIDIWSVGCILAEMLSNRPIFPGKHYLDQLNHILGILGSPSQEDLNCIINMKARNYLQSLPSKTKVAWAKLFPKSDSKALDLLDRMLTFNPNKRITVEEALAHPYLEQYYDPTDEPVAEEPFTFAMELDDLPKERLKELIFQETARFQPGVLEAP
Mitogen-activated protein kinase; ERK1/ERK2 (Homo sapiens), sequence (P28482 whole entry, looked up): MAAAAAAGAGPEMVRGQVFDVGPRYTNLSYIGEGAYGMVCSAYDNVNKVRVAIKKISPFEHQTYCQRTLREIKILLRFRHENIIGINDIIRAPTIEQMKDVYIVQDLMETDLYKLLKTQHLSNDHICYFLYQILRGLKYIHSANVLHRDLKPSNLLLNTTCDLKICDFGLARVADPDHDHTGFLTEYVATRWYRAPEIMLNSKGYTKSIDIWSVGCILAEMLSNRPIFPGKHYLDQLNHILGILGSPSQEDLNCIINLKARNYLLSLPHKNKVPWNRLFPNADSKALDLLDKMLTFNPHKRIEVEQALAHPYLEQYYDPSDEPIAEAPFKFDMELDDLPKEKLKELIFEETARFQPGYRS
Cellular tumor antigen p53 (Homo sapiens), sequence (P04637 whole entry, looked up, the tested form may be a part): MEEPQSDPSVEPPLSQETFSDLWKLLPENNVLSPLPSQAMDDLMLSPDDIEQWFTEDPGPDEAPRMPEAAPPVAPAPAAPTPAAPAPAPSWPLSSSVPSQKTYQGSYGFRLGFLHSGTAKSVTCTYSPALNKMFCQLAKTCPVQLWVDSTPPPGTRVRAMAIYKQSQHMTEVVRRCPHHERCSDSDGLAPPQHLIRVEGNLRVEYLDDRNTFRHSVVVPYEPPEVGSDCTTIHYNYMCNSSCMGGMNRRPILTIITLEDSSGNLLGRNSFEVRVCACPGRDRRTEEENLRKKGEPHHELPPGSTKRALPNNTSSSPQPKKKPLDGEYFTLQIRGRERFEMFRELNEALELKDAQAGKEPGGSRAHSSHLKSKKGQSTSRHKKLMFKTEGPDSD

SMILES | Activity [1] | Activity (Mahlavu [2]) | Activity (SNU-475 [3]) | Activity (SNU-475 [4]) | inhibition [5] | Activity (Huh-7 [6]) | Activity (Mahlavu [7]) | inhibition (Huh-7 [8]) | Activity (HepG2 [9]) | Activity (Huh-7 [10]) | Activity (Huh-7 [11]) | inhibition [12] | inhibition (Mahlavu [13]) | Activity (SNU-475 [14]) | Activity (SNU-475 [15]) | Activity (HepG2 [16]) | Activity (SNU-475 [17]) | Activity (Mahlavu [19]) | Activity (Mahlavu [20]) | inhibition [21] | other results
FC(F)(F)c1ccc(CN2CCN(Cc3cc(-c4ccc(OCc5ccccc5)cc4)on3)CC2)cc1 | inactive | Active | Active | Active | Active | inactive | Active | Active | Active | Active | Dose-Dependent Effect | inactive | Active | Active | Dose-Dependent Effect | Active | Active | Active | inactive | Active | Activity (Mahlavu [18]): Active; pIC50 (Huh-7 [22]): 5.77
N#Cc1cccc(COc2ccc(-c3cc(CN4CCN(Cc5ccc(C(F)(F)F)cc5)CC4)no3)cc2F)c1 | inactive | Active | Active | Active | Active | inactive | Active | Active | Active | Active | Dose-Dependent Effect | inactive | Active | Active | Dose-Dependent Effect | Active | Active | Active | inactive | Active | inhibition [23]: Active; Activity (SNU-475 [24]): Active; inhibition (Mahlavu [25]): Active; pIC50 (Huh-7 [22]): 7.05
